This is an account of results in ChEMBL document CHEMBL6092180 (Eur J Med Chem, 2024).

The structures appear in SMILES notation. ≈ marks a conversion by molar mass, not a printed value.

Holding throughout (assay type): functional
Assay [1] concerns Candida albicans. Put plainly: Antifungal activity against Candida albicans SC5314 assessed as inhibition of fungal growth by CLSI M27-A3 guidelines based method.
For assay [2], the system named is Candida albicans. Put plainly: Antifungal activity against Candida albicans GIM 2.194 assessed as inhibition of fungal growth by CLSI M27-A3 guidelines based method.
Another assay deals with Candida tropicalis. Kind of assay: Antifungal activity against Candida tropicalis GIM 2.183 assessed as inhibition of fungal growth by CLSI M27-A3 guidelines based method.
For another assay, the system named is Candida parapsilosis. Kind of assay: Antifungal activity against Candida parapsilosis GIM 2.190 assessed as inhibition of fungal growth by CLSI M27-A3 guidelines based method. Conditions: Lodderomyces parapsilosis.
The next assay relates to Nakaseomyces glabratus. Kind of assay: Antifungal activity against Candida glabrata assessed as inhibition of fungal growth by CLSI M27-A3 guidelines based method.
For the next assay, the system named is Pichia kudriavzevii. Put plainly: Antifungal activity against Candida krusei GIM 2.1 assessed as inhibition of fungal growth by CLSI M27-A3 guidelines based method.
The next assay deals with Cryptococcus neoformans. Put plainly: Antifungal activity against Cryptococcus neoformans CGMCC 2.3161 assessed as inhibition of fungal growth by CLSI M27-A3 guidelines based method.

In general, MIC80 refers to the lowest concentration that inhibits either 80% of growth or 80% of the strains tested, depending on the study. In the case of `C[C@@H](N(C)Cc1ccc(C#Cc2ccc(C(C)(C)C)cc2)cc1)[C@](O)(Cn1cncn1)c1ccc(F)cc1F`, the MIC80 turned out to be 1.6 µg/mL (≈ 3.03 µM) with Candida albicans [1]; 3.2 µg/mL (≈ 6.05 µM) in the assay with Candida albicans [2]; 1.6 µg/mL (≈ 3.03 µM) with Candida tropicalis; 1.6 µg/mL (≈ 3.03 µM) in the assay on Candida parapsilosis; 3.2 µg/mL (≈ 6.05 µM) in the assay on Nakaseomyces glabratus; 3.2 µg/mL (≈ 6.05 µM) in the assay with Pichia kudriavzevii. Also, the MIC80 with Cryptococcus neoformans turned out to be 3.2 µg/mL (≈ 6.05 µM).
With `CN(Cc1ccc(C#Cc2ccc(C(C)(C)C)cc2)cc1)CC(O)(Cn1cncn1)c1ccc(F)cc1F` (configuration not stated), the MIC80 in the assay with Candida albicans [1] stood at 0.025 µg/mL (≈ 0.0486 µM); in the assay with Candida albicans [2], 0.025 µg/mL (≈ 0.0486 µM); in the assay with Candida tropicalis, 0.025 µg/mL (≈ 0.0486 µM); in the assay with Candida parapsilosis, 0.013 µg/mL (≈ 0.0253 µM); in the assay on Nakaseomyces glabratus, 0.8 µg/mL (≈ 1.55 µM); in the assay with Pichia kudriavzevii, 0.4 µg/mL (≈ 0.777 µM). Further, the MIC80 in the assay on Cryptococcus neoformans stood at 0.05 µg/mL (≈ 0.0972 µM).
Regarding `Cc1ccc(C#Cc2ccc(CN(C)CC(O)(Cn3cncn3)c3ccc(F)cc3F)cc2)cc1` (configuration not stated), the MIC80 in the assay with Candida albicans [1] was 0.013 µg/mL (≈ 0.0275 µM); in the assay with Candida albicans [2], 0.013 µg/mL (≈ 0.0275 µM); in the assay with Candida tropicalis it was 0.013 µg/mL (≈ 0.0275 µM); in the assay with Candida parapsilosis, 0.013 µg/mL (≈ 0.0275 µM); in the assay on Nakaseomyces glabratus, 0.4 µg/mL (≈ 0.846 µM); in the assay with Pichia kudriavzevii, 0.2 µg/mL (≈ 0.423 µM). The MIC80 with Cryptococcus neoformans was 0.013 µg/mL (≈ 0.0275 µM).
Consider `CN(Cc1ccc(C#Cc2cncnc2)cc1)CC(O)(Cn1cncn1)c1ccc(F)cc1F` (configuration not stated), for which the MIC80 amounted to 0.025 µg/mL (≈ 0.0543 µM) in the assay with Candida albicans [1]; 0.05 µg/mL (≈ 0.109 µM) with Candida albicans [2]; 0.025 µg/mL (≈ 0.0543 µM) in the assay on Candida tropicalis; 0.025 µg/mL (≈ 0.0543 µM) with Candida parapsilosis; 3.2 µg/mL (≈ 6.95 µM) in the assay with Nakaseomyces glabratus; 0.8 µg/mL (≈ 1.74 µM) with Pichia kudriavzevii. In addition, in the assay on Cryptococcus neoformans, the MIC80 turned out to be 0.4 µg/mL (≈ 0.869 µM).
As to `C[C@@H](N(C)Cc1ccc(C#Cc2ccc(OC(F)(F)F)cc2)cc1)[C@](O)(Cn1cncn1)c1ccc(F)cc1F`, the MIC80 with Candida albicans [1] is 0.05 µg/mL (≈ 0.0898 µM); in the assay on Candida albicans [2], 0.05 µg/mL (≈ 0.0898 µM); with Candida tropicalis it was 0.013 µg/mL (≈ 0.0234 µM); with Candida parapsilosis it was 0.013 µg/mL (≈ 0.0234 µM); with Nakaseomyces glabratus it was 0.03 µg/mL (≈ 0.0539 µM); in the assay with Pichia kudriavzevii it was 0.8 µg/mL (≈ 1.44 µM). Moreover, the MIC80 in the assay on Cryptococcus neoformans worked out at 0.05 µg/mL (≈ 0.0898 µM).
As to `CN(Cc1ccc(C#Cc2cccc(Cl)c2)cc1)CC(O)(Cn1cncn1)c1ccc(F)cc1F` (configuration not stated), the MIC80 was found to be 0.013 µg/mL (≈ 0.0264 µM) with Candida albicans [1]; 0.006 µg/mL (≈ 0.0122 µM) with Candida albicans [2]; 0.013 µg/mL (≈ 0.0264 µM) in the assay on Candida tropicalis; 0.006 µg/mL (≈ 0.0122 µM) in the assay on Candida parapsilosis; 0.2 µg/mL (≈ 0.406 µM) with Nakaseomyces glabratus; 0.01 µg/mL (≈ 0.0203 µM) in the assay with Pichia kudriavzevii. Further, the MIC80 in the assay with Cryptococcus neoformans was determined as 0.013 µg/mL (≈ 0.0264 µM).
Consider `CN(Cc1ccc(C#Cc2ncccn2)cc1)CC(O)(Cn1cncn1)c1ccc(F)cc1F` (configuration not stated), for which the MIC80 in the assay with Candida albicans [1] amounted to 0.025 µg/mL (≈ 0.0543 µM); in the assay on Candida albicans [2], 0.05 µg/mL (≈ 0.109 µM); with Candida tropicalis it was 0.025 µg/mL (≈ 0.0543 µM); in the assay with Candida parapsilosis, 0.025 µg/mL (≈ 0.0543 µM); in the assay on Nakaseomyces glabratus, 3.2 µg/mL (≈ 6.95 µM); in the assay on Pichia kudriavzevii it was 1.6 µg/mL (≈ 3.47 µM). Also, the MIC80 in the assay on Cryptococcus neoformans was 0.8 µg/mL (≈ 1.74 µM).
On to `CN(Cc1ccc(C#Cc2ccccc2Cl)cc1)CC(O)(Cn1cncn1)c1ccc(F)cc1F` (configuration not stated), for which the MIC80 worked out at 0.013 µg/mL (≈ 0.0264 µM) with Candida albicans [1]; 0.006 µg/mL (≈ 0.0122 µM) in the assay with Candida albicans [2]; 0.013 µg/mL (≈ 0.0264 µM) with Candida tropicalis; 0.006 µg/mL (≈ 0.0122 µM) in the assay with Candida parapsilosis; 0.8 µg/mL (≈ 1.62 µM) in the assay on Nakaseomyces glabratus; 0.03 µg/mL (≈ 0.0609 µM) in the assay on Pichia kudriavzevii. Besides, the MIC80 in the assay with Cryptococcus neoformans stood at 0.013 µg/mL (≈ 0.0264 µM).
For `COc1ccc(C#Cc2ccc(CN(C)CC(O)(Cn3cncn3)c3ccc(F)cc3F)cc2)cc1` (configuration not stated), the MIC80 in the assay with Candida albicans [1] came out at 0.013 µg/mL (≈ 0.0266 µM); in the assay with Candida albicans [2], 0.013 µg/mL (≈ 0.0266 µM); in the assay on Candida tropicalis, 0.013 µg/mL (≈ 0.0266 µM); in the assay with Candida parapsilosis, 0.013 µg/mL (≈ 0.0266 µM); in the assay on Nakaseomyces glabratus it was 0.8 µg/mL (≈ 1.64 µM); with Pichia kudriavzevii, 0.2 µg/mL (≈ 0.409 µM). In the assay on Cryptococcus neoformans, the MIC80 is 0.05 µg/mL (≈ 0.102 µM).
In the case of `CN(Cc1ccc(C#Cc2ccccc2Br)cc1)CC(O)(Cn1cncn1)c1ccc(F)cc1F` (configuration not stated), the MIC80 in the assay with Candida albicans [1] amounted to 0.013 µg/mL (≈ 0.0242 µM); with Candida albicans [2], 0.006 µg/mL (≈ 0.0112 µM); with Candida tropicalis, 0.013 µg/mL (≈ 0.0242 µM); in the assay on Candida parapsilosis, 0.006 µg/mL (≈ 0.0112 µM); with Nakaseomyces glabratus, 0.4 µg/mL (≈ 0.744 µM); with Pichia kudriavzevii it was 0.03 µg/mL (≈ 0.0558 µM). The MIC80 with Cryptococcus neoformans is 0.013 µg/mL (≈ 0.0242 µM).
In the case of `CN(Cc1ccc(C#Cc2ccc(Br)cc2F)cc1)CC(O)(Cn1cncn1)c1ccc(F)cc1F` (configuration not stated), the MIC80 stood at 0.006 µg/mL (≈ 0.0108 µM) in the assay on Candida albicans [1]; 0.006 µg/mL (≈ 0.0108 µM) in the assay with Candida albicans [2]; 0.006 µg/mL (≈ 0.0108 µM) in the assay with Candida tropicalis; 0.006 µg/mL (≈ 0.0108 µM) in the assay on Candida parapsilosis; 0.03 µg/mL (≈ 0.054 µM) in the assay on Nakaseomyces glabratus; 0.03 µg/mL (≈ 0.054 µM) in the assay on Pichia kudriavzevii. In the assay with Cryptococcus neoformans, the MIC80 was found to be 0.025 µg/mL (≈ 0.045 µM).
